pIC50: −log10 of the molar value.
Columns and labels:
[1] = molecular target: wild type PRC2 (wtPRC2) complex (Homo sapiens (Human), UniProt O75530); experiment: EED LC-MS assay; format: biochemical; settings: EED LC-MS Qualified assay; read-out: (b) IC50
Method: EED LC-MS Assay Representative compounds of the present invention were serially and separately diluted 3-fold in DMSO to obtain a total of eight or twelve concentrations. […] A 6 μL solution of 3 μM of the peptide substrate H3K27Me0 (histone H3[21-44]-biotin) in reaction buffer was added to initiate each reaction. […] The data were then fit to a dose response equation using the program Helios to get the IC50 values of the test compound.

EED (1-441)-His protein = EED (1-441)-His protein (Homo sapiens (Human), UniProt O75530); experiment: EED-H3K27Me3 peptide competition binding assay by AlphaScreen; settings: EED Alphascreen binding Qualified assay
Sequence of EED (1-441)-His protein (O75530 whole entry): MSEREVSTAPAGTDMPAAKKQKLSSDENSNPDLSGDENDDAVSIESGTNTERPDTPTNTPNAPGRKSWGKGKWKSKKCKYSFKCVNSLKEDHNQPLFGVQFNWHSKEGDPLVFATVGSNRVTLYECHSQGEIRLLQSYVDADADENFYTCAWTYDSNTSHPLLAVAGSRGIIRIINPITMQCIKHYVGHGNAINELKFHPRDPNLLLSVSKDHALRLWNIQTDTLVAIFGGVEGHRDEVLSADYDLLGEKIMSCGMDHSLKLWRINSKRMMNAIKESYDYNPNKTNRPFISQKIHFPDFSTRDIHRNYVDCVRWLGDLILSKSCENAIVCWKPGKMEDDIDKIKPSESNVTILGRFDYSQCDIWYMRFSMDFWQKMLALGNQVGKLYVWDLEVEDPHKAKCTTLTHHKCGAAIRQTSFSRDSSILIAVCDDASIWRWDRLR
Method: Then 4 μL of detection beads mix was added to the plate and incubate in the dark at the rt for 1 h. The final concentration of donor and acceptor beads was 10 μg/mL for each. […] The data were then fit to a dose response equation using the program Helios (Novartis) to get the IC50 values. […] Sebaugh, J. […] Each compound was counter screened to determine if it interfered with the AlphaScreen beads. […] The plates were then incubated for 1 h at rt in dark before being read on EnVison.

[2] = tested on: H3K27 methylation in G401 cell; experiment: ELISA (H3K27 methylation) assay; format: cell-based; settings: Homo sapiens, G-401, ELISA Qualified assay, 48 h, read-out: (c) IC50
Method: ELISA (H3K27 Methylation) Assay
Representative compounds of the present invention were serially and separately diluted 3-fold in DMSO to obtain a total of eight or twelve concentrations. Then the compounds were added to G401 cell cultured in 384-well plate at 1:500 dilution to obtain the highest concentration of 20 μM. The cells were further cultured for 48 h before ELISA procedure.
ELISA protocol: Cell lysates were transferred to the wells of a 384-well plate and the final volume was adjusted to 50 μL per well with PBS. The plate was sealed, centrifuged at 2,000 rpm for 2 min and incubated at 4° C. for about 16 h. The plate was washed with TBST buffer (1×TBS (10×TBS: 24.2 g Tris (Sigma, T6066), 80 g NaCl (Sigma, S3014) to 1 L of water and adjust pH to 7.6 with HCl) with 0.1% Tween-20). Blocking buffer (TBST, 5% BSA; 50 μL per well) was added and the plate was incubated for 1 h at rt. The blocking buffer was removed and primary antibody was added (30 μL per well). […] The primary antibody was incubated in the plate at rt for 1 h. The wells were washed with TBST and incubated with secondary antibody for 1 h at rt. […] After 1 h of incubation at rt, the wells were washed with TBST. […] The signal was read using a PerkinElmer Envision Reader. The H3K27 methylation readouts were normalized using H3 signal and then percentage inhibition was calculated against the samples treated with DMSO. The data were then fit to a dose response curve using the program Helios to get the IC50 values of the test compound.

Sequence of wild type PRC2 (wtPRC2) complex (O75530 whole entry): as above
Sequence of wild type PRC2 (wtPRC2) complex (Q15910 whole entry partner): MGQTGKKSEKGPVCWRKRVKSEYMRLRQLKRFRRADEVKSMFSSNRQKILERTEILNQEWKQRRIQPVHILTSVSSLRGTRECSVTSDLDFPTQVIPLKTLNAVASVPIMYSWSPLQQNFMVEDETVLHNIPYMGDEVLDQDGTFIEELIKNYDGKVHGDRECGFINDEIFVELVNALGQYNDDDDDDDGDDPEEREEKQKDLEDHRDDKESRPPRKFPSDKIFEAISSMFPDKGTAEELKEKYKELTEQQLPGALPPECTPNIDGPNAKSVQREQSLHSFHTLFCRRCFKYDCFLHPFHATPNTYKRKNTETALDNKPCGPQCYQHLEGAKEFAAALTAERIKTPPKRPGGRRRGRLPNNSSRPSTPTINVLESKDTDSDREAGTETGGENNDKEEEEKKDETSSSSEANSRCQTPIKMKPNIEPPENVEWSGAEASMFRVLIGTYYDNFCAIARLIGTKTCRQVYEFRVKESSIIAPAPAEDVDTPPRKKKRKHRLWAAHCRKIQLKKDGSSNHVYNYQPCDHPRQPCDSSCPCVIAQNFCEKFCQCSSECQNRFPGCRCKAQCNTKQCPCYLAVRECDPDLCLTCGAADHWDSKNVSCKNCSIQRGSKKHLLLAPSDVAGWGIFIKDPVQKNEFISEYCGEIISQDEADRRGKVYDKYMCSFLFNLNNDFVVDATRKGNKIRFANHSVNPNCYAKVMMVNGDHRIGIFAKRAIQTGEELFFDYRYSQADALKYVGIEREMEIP
Sequence of wild type PRC2 (wtPRC2) complex (Q15022 whole entry partner): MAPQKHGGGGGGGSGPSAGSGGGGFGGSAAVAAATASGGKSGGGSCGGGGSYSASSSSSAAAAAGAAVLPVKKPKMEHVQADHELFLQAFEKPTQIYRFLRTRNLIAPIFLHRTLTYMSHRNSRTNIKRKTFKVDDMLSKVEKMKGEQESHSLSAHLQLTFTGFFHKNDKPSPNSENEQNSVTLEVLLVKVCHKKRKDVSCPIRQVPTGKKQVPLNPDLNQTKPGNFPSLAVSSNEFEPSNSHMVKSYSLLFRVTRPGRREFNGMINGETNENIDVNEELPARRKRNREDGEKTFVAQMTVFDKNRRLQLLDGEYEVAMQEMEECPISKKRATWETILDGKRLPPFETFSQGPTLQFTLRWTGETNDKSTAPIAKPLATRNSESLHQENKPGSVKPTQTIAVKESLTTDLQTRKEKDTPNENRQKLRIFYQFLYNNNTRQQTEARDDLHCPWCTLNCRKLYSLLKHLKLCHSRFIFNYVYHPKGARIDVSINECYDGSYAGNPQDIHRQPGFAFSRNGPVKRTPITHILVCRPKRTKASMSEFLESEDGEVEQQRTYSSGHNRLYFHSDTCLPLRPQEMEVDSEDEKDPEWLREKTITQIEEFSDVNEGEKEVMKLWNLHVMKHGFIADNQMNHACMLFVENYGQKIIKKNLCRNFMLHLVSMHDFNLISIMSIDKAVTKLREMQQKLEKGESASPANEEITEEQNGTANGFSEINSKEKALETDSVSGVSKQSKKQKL

Work on `CCOC(=O)c1ncn2c(NCc3cc(OC)c(F)cc3F)ncc(-c3ccc(S(=O)(=O)N(C)C)cc3)c12` [Example 97, ethyl 5-((2,4-difluoro-5-methoxybenzyl)amino)-8-(4-(N,N-dimethylsulfamoyl)phenyl)imidazo[1,5-c]pyrimidine-1-carboxylate] yielded a pIC50 [1] of 7.78, a pIC50 (EED (1-441)-His protein) of 7.71 and a pIC50 [2] of 6.70.
For `CN1CCN(c2ccc(-c3cnc(NCc4c(F)ccc5c4CCO5)n4cncc34)cn2)CC1` [Example 40, N-((5-fluoro-2,3-dihydrobenzofuran-4-yl)methyl)-8-(6-(4-methylpiperazin-1-yl)pyridin-3-yl)imidazo[1,5-c]pyrimidin-5-amine], the pIC50 [1] was 7.55, the pIC50 (EED (1-441)-His protein) was 7.75 and the pIC50 [2] was 7.18.
`Cc1nn(C)c(C)c1-c1cnc(NCc2c(F)ccc3c2CCO3)n2cncc12` [Example 46, N-((5-fluoro-2,3-dihydrobenzofuran-4-yl)methyl)-8-(1,3,5-trimethyl-1H-pyrazol-4-yl)imidazo[1,5-c]pyrimidin-5-amine] was tested, and the pIC50 [1] was 7.64, the pIC50 (EED (1-441)-His protein) was 7.74 and the pIC50 [2] was 6.95.
In the case of `N#Cc1ccc(-c2cnc(NCc3c(F)ccc4c3CCO4)n3cncc23)cn1` [Example 31, 5-(5-(((5-fluoro-2,3-dihydrobenzofuran-4-yl)methyl)amino)imidazo[1,5-c]pyrimidin-8-yl)picolinonitrile], the pIC50 [1] was 7.68, the pIC50 (EED (1-441)-His protein) was 7.84 and the pIC50 [2] was 7.40.
`Fc1ccc2c(c1CNc1ncc(-c3ccncc3)c3cncn13)CCO2` [Example 20, N-((5-fluoro-2,3-dihydrobenzofuran-4-yl)methyl)-8-(pyridin-4-yl)imidazo[1,5-c]pyrimidin-5-amine] showed a pIC50 [1] of 7.36, a pIC50 (EED (1-441)-His protein) of 7.67 and a pIC50 [2] of 7.09.
`Cc1ccc(-c2ncn3c(NCc4c(F)ccc5c4CCO5)ncc(-c4cnc(C)nc4C)c23)c(C)n1` [Example 113, 1-(2,6-dimethylpyridin-3-yl)-8-(2,4-dimethylpyrimidin-5-yl)-N-((5-fluoro-2,3-dihydrobenzofuran-4-yl)methyl)imidazo[1,5-c]pyrimidin-5-amine] gave a pIC50 [1] of 7.41, a pIC50 (EED (1-441)-His protein) of 7.82 and a pIC50 [2] of 7.27.
Molecule `CNC(=O)c1ncn2c(NCc3c(F)ccc4c3CCO4)ncc(-c3cccnc3C)c12` [Example 2, 5-(((5-Fluoro-2,3-dihydrobenzofuran-4-yl)methyl)amino)-N-methyl-8-(2-methylpyridin-3-yl)imidazo[1,5-c]pyrimidine-1-carboxamide] has a pIC50 [1] of 7.57, a pIC50 (EED (1-441)-His protein) of 7.91 and a pIC50 [2] of 7.90.
Work on `Cc1cc(-c2cnc(NCc3c(F)ccc4c3CCO4)n3cnc(C#N)c23)n(C)n1` [Example 5, 8-(1,3-Dimethyl-1H-pyrazol-5-yl)-5-(((5-fluoro-2,3-dihydrobenzofuran-4-yl)methyl)amino)imidazo[1,5-c]pyrimidine-1-carbonitrile] yielded a pIC50 [1] of 8.05, a pIC50 (EED (1-441)-His protein) of 8.46 and a pIC50 [2] of 8.49.
`Cc1ccc(-c2cnc(NCc3c(F)ccc4c3CCO4)n3cncc23)c(C)n1` [Example 43, 8-(2,6-dimethylpyridin-3-yl)-N-((5-fluoro-2,3-dihydrobenzofuran-4-yl)methyl)imidazo[1,5-c]pyrimidin-5-amine] gave a pIC50 [1] of 7.90, a pIC50 (EED (1-441)-His protein) of 7.99 and a pIC50 [2] of 7.29.
`Cc1cc(S(C)(=O)=O)ccc1-c1cnc(NCc2c(F)ccc3c2CCO3)n2cncc12` [Example 42, N-((5-fluoro-2,3-dihydrobenzofuran-4-yl)methyl)-8-(2-methyl-4-(methylsulfonyl)phenyl)imidazo[1,5-c]pyrimidin-5-amine] showed a pIC50 [1] of 8.07, a pIC50 (EED (1-441)-His protein) of 7.98 and a pIC50 [2] of 7.10.
Work on `Cc1cc(-c2cnc(NCc3c(F)ccc4c3CCO4)n3cncc23)n(C)n1` [Example 45, 8-(1,3-dimethyl-1H-pyrazol-5-yl)-N-((5-fluoro-2,3-dihydrobenzofuran-4-yl)methyl)imidazo[1,5-c]pyrimidin-5-amine] yielded a pIC50 [1] of 8.08, a pIC50 (EED (1-441)-His protein) of 8.29 and a pIC50 [2] of 7.75.
With `Cc1nc(OC(C)C)ncc1-c1cnc(NCc2c(F)ccc3c2CCO3)n2cncc12` [Example 61, N-((5-fluoro-2,3-dihydrobenzofuran-4-yl)methyl)-8-(2-isopropoxy-4-methylpyrimidin-5-yl)imidazo[1,5-c]pyrimidin-5-amine] the pIC50 [1] was 7.72, the pIC50 (EED (1-441)-His protein) was 8.08 and the pIC50 [2] was 7.65.
For `Cc1ncc(-c2cnc(NCc3c(F)ccc4c3CCO4)n3cnc(CO)c23)c(C)n1` [Example 8, (8-(2,4-Dimethylpyrimidin-5-yl)-5-(((5-fluoro-2,3-dihydrobenzofuran-4-yl)methyl)amino)imidazo[1,5-c]pyrimidin-1-yl)methanol], the pIC50 [1] was 7.73, the pIC50 (EED (1-441)-His protein) was 7.94 and the pIC50 [2] was 7.52.
With `CCOC(=O)c1ncn2c(NCc3c(F)ccc4c3CCO4)ncc(-c3ccc(C)nc3C)c12` [Example 93, ethyl 8-(2,6-dimethylpyridin-3-yl)-5-(((5-fluoro-2,3-dihydrobenzofuran-4-yl)methyl)amino)imidazo[1,5-c]pyrimidine-1-carboxylate] the pIC50 [1] was 8.24, the pIC50 (EED (1-441)-His protein) was 8.31 and the pIC50 [2] was 8.29.
With `CS(=O)(=O)c1cccc(-c2cnc(NCc3c(F)ccc4c3CCO4)n3cncc23)c1` [Example 27, N-((5-fluoro-2,3-dihydrobenzofuran-4-yl)methyl)-8-(3-(methylsulfonyl)phenyl)imidazo[1,5-c]pyrimidin-5-amine] the pIC50 [1] was 7.63, the pIC50 (EED (1-441)-His protein) was 7.62 and the pIC50 [2] was 7.37.
Molecule `Fc1ccc2c(c1CNc1ncc(-c3cccnc3F)c3cncn13)CCO2` [Example 21, N-((5-fluoro-2,3-dihydrobenzofuran-4-yl)methyl)-8-(2-fluoropyridin-3-yl)imidazo[1,5-c]pyrimidin-5-amine] has a pIC50 [1] of 7.66, a pIC50 (EED (1-441)-His protein) of 7.71 and a pIC50 [2] of 7.45.
For `CS(=O)(=O)c1ccc(-c2cnc(NCc3c(F)ccc4c3CCO4)n3cncc23)cn1` [Example 22, N-((5-fluoro-2,3-dihydrobenzofuran-4-yl)methyl)-8-(6-(methylsulfonyl)pyridin-3-yl)imidazo[1,5-c]pyrimidin-5-amine], the pIC50 [1] was 8.01, the pIC50 (EED (1-441)-His protein) was 8.26 and the pIC50 [2] was 7.25.
In the case of `CCOC(=O)c1ncn2c(NCc3c(F)ccc4c3CCO4)ncc(-c3ccc(S(C)(=O)=O)cc3)c12` [Example 92, ethyl 5-(((5-fluoro-2,3-dihydrobenzofuran-4-yl)methyl)amino)-8-(4-(methylsulfonyl)phenyl)imidazo[1,5-c]pyrimidine-1-carboxylate], the pIC50 [1] was 8.23, the pIC50 (EED (1-441)-His protein) was 8.27 and the pIC50 [2] was 9.15.
`Cc1nn(C(C)C)cc1-c1cnc(NCc2c(F)ccc3c2CCO3)n2cncc12` [Example 53, N-((5-fluoro-2,3-dihydrobenzofuran-4-yl)methyl)-8-(1-isopropyl-3-methyl-1H-pyrazol-4-yl)imidazo[1,5-c]pyrimidin-5-amine] gave a pIC50 [1] of 7.64, a pIC50 (EED (1-441)-His protein) of 8.00 and a pIC50 [2] of 7.02.
`Cc1ncc(-c2cnc(NCc3c(F)ccc4c3CCO4)n3cnc(S(C)(=O)=O)c23)c(C)n1` [Example 101, 8-(2,4-dimethylpyrimidin-5-yl)-N-((5-fluoro-2,3-dihydrobenzofuran-4-yl)methyl)-1-(methylsulfonyl)imidazo[1,5-c]pyrimidin-5-amine] gave a pIC50 [1] of 7.88, a pIC50 (EED (1-441)-His protein) of 8.44 and a pIC50 [2] of 8.04.
`OCCNc1ncc(-c2cnc(NCc3c(F)ccc4c3CCO4)n3cncc23)cn1` [Example 44, 2-((5-(5-(((5-fluoro-2,3-dihydrobenzofuran-4-yl)methyl)amino)imidazo[1,5-c]pyrimidin-8-yl)pyrimidin-2-yl)amino)ethan-1-ol] gave a pIC50 [1] of 7.71, a pIC50 (EED (1-441)-His protein) of 8.07 and a pIC50 [2] of 7.19.
